Assay results taken from patent US8173788B2, “Peptide having ability to activate cancer-related gene” (priority 2005, dated 2012).
Where no end group is shown, it is not given here.

How the values were obtained:
Skin fibroblast cell = assay: RT-PCR gene pattern change after 7 hr peptide treatment, skin fibroblast cell; assay type: cell-based; details: 11-amino acid primer (full sequence), skin fibroblast sample
Experimental: (§1) In order to examine influences at a gene level of the peptide on normal cells, RT-PCR was performed by adding the peptide artificially synthesized in Example 3 to the normal cells.
(§2) (1) Normal cells were treated with the artificially synthesized peptide for 7 hr as follows:
(§3) Then, total RNA was extracted from the above-treated normal cells, untreated normal cells, and squamous-cell carcinoma cells by using an RNA extraction kit (QIAGEN). The numbers of the treated cells and the untreated cells were the same.
(§4) Reverse transcription was performed by using 30 μg of each extracted total RNA to generate cDNA pools.
(§5) PCR was conducted using each of the cDNA pools as templates.
(§6) The condition for the PCR was as follows:
(§7) (2) Each of the PCR products was applied to electrophoresis and detected by using a fluorescence label.

[1] = system: peripheral blood monocytes; assay: RT-PCR gene pattern change after 7 hr peptide treatment, peripheral blood monocytes; assay type: cell-based, human
Experimental: as §1, §2, §3, §4, §5, §6, §7

Normal lymphocytes = assay: Exhaustive gene analysis of 55000 genes by DNA chip system (Codelink System); assay type: cell-based; details: normal lymphocytes treated vs untreated, Codelink slide 55000 genes
Experimental: Characteristics of the peptide of the present invention were clarified by conducting the analysis described below in order to examine effects of the peptide on gene expression of normal cells.
Normal lymphocytes were treated with the peptide of the present invention as in Examples 4 and 5, and the gene expression was compared to that of untreated lymphocytes by using a DNA chip system (Codelink System). In this examination, cRNA derived from bacteria was used as a positive control. Total RNA was extracted by using the QIAGEN RNA extraction kit used in Example 5. The total RNA (5 to 10 μg) was subjected to reverse transcription using an oligo-dT primer having a T7 RNA polymerase promoter region as a reverse primer to generate a pool of cDNAs complementary to the mRNAs. The condition for the reverse transcription was the same as that in Example 5. […] The amount of the cRNA was measured with a spectrophotometer to confirm at least 10 μg of the cRNA. […]
The hybridization chamber was removed and the plate was washed at 46° C. for 1 hr. The hybridization was detected with Cy5-streptavidin (1:500 dilution, at room temperature for 30 min). […]
(5) The result was analyzed by exclusive software for the Codelink analysis. […]

[2] = system: rejection in skin transplantation; assay: Skin transplantation test, C57Black/6N skin to back of BALB/c mouse; assay type: in vivo; details: 50 μg peptide/0.1 ml/mouse subcutaneously
Experimental: Then, the cellular immunity-inhibition activity of the peptide was examined from the viewpoint of activity for preventing rejection in skin transplantation.
The peptide of the present invention was administered to mice who have received skin transplantation according to the schedule shown in Table 6.

[3] = system: human normal peripheral blood monocyte; assay: Influence of the artificially synthesized peptide on normal cell genes: coculture 7 hr, DNA chip system (Clontech), about 55000 human genes (Table 4); assay type: cell-based; details: monocytes, 7 hr
Experimental: (a) The peptide obtained in Example 3 was added to a human normal peripheral blood monocyte culture system (10 to 100 μg peptide/1×10^6 to 1×10^7 monocytes), and they were cocultured for 7 hr. Then, mRNA was extracted from the monocytes and was applied to analysis for up-regulation and down-regulation in respect to about 55000 human genes by using DNA chip system (Clontech).

Kidney mesangium cell = assay: RT-PCR gene pattern change after 7 hr peptide treatment, kidney mesangium cell; assay type: cell-based; details: 11-amino acid primer (full sequence), kidney mesangium sample
Experimental: as §1, §2, §3, §4, §5, §6, §7

[4] = system: Pancreatic epithelial cells; assay: RT-PCR gene pattern change after 7 hr peptide treatment, pancreatic epithelial cells; assay type: cell-based; details: pancreatic epithelial sample
Experimental: as §1, §2, §3, §4, §5, §6, §7

[5] = system: peripheral blood monocytes; assay: Effect of the artificially synthesized peptide on total mRNA amount of peripheral blood monocytes; assay type: cell-based, human; set-up: reduction ratio: concentration or dose not given beside the values; details: peptide 7 hr; for post total RNA: 1 × 10^7 monocytes
Experimental: (b) The peptide obtained in Example 3 was added to a culture medium (10 to 100 μg peptide/1×10^7 monocytes) for human normal peripheral blood monocytes extracted from subjects shown in Table 5 below, and they were cocultured for 7 hr. Then, total mRNA was extracted from the monocytes, and the amount of the total mRNA was measured and compared to that of the total mRNA before the treatment with the peptide.

[6] = subject eight, healthy subject (smoker)
[7] = subject five, healthy subject (side-stream smoke)
[8] = subject four, cancer patient received chemotherapy and radiotherapy
[9] = subject one, healthy subject (side-stream smoke)
[10] = subject seven, healthy subject (smoker)
[11] = subject two, healthy subject (side-stream smoke)

QPQFGRRMESK [artificially synthesized peptide]
gene band pattern by PCR before and after peptide treatment (Skin fibroblast cell): a difference in the band patterns was observed
gene band pattern by PCR before and after peptide treatment ([1]; 11-amino acid primer (full sequence), peripheral blood sample (H.S.), 7 hr): a difference in the band patterns was observed
gene pattern change by PCR after peptide treatment ([1]; 11-amino acid primer, sample of lanes 2 and 3 of FIG. 2B, healthy young man in twenties): gene mutation was hardly induced
expression status of cancer-related genes (Normal lymphocytes): Cancer-inducing expression status of cancer-related genes was observed
delay of skin rejection versus control ([2]; intermittent): 5 days
rejection in skin transplantation / skin graft survival ([2]; intermittent): the rejection in the skin transplantation was suppressed and skin graft survival was prolonged
skin rejection occurred, days after the transplantation ([2]; intermittent, 6 mice, control 7 days): 12 days
survival of the transplanted skin of one mouse after the transplantation ([2]; one mouse): 14 days
Expression of TNF [3]: not enhanced
expression of cell growth factor such as a platelet-derived growth factor [3]: enhanced
expression of genes relating to anti-tumor immunity [3]: highly suppressed
expression of most of important factors as an operating factor for the humoral immunity mechanism [3]: enhanced
Expression of a gene relating to inhibition of metastasis of breast cancer, suppressed to ([3]; fraction of baseline): 1/60
expression of RAS suppressor protein gene, suppressed to ([3]; fraction of baseline): 1/43
expression of a gene relating to inhibition of leukemia, suppressed to ([3]; fraction of baseline): 1/43
gene band pattern by PCR before and after peptide treatment (Kidney mesangium cell): a difference in a position having a high concentration was observed
gene band pattern by PCR before and after peptide treatment ([4]; 7-amino acid primer (partial sequence)): a difference in the band patterns was observed
gene band pattern by PCR before and after peptide treatment ([4]; 11-amino acid primer (full sequence)): a difference in a position having a high concentration was observed
post total RNA ([5]; subject eight, healthy subject (smoker), pre 45.875 μg/ml): 0.958 µg/mL
post/pre [5, 6]: 2%
reduction ratio [5, 6]: 98%
post total RNA ([5]; subject five, healthy subject (side-stream smoke), pre 58.076 μg/ml): 19.551 µg/mL
post/pre [5, 7]: 33.6%
reduction ratio [5, 7]: 66.4%
post total RNA ([5]; subject four, cancer patient received chemotherapy and radiotherapy, pre 8.078 μg/ml): 1.757 µg/mL
post/pre [5, 8]: 21.7%
reduction ratio [5, 8]: 78.3%
post total RNA ([5]; subject one, healthy subject (side-stream smoke), pre 69.622 μg/ml): 7.735 µg/mL
post/pre [5, 9]: 11.1%
reduction ratio [5, 9]: 88.9%
post total RNA ([5]; subject seven, healthy subject (smoker), pre 20.779 μg/ml): 9.188 µg/mL
post/pre [5, 10]: 44.2%
reduction ratio [5, 10]: 55.8%
post total RNA ([5]; subject six, healthy subject, pre 52.318 μg/ml): 17.681 µg/mL
post/pre ([5]; subject six, healthy subject): 33.7%
reduction ratio ([5]; subject six, healthy subject): 66.3%
post total RNA ([5]; subject three, healthy subject, pre 61.145 μg/ml): 16.562 µg/mL
post/pre ([5]; subject three, healthy subject): 27%
reduction ratio ([5]; subject three, healthy subject): 73%
post total RNA ([5]; subject two, healthy subject (side-stream smoke), pre 66.804 μg/ml): 14.742 µg/mL
post/pre [5, 11]: 22%
reduction ratio [5, 11]: 78%
